Literature values as cited in US20030206958A1, “Chitosan biopolymer for the topical delivery of active agents” (priority 2002, published 2003).

CC1=C(/C=C/C(C)=C/C=C/C(C)=C/C(=O)O)C(C)(C)CCC1 [tretinoin, all-trans retinoic acid]
Patients with irritation (topical (Gilchrest, 1997)): 90 % of patients
Patients discontinuing treatment because of irritation (topical (Stam-Posthuma et al., 1998)): ~50 % of patients
